Laboratory results: US8822445B2, “Crystalline form of carbapenem derivative or its hydrates and preparation methods and uses thereof” (priority 2010, dated 2014)
Values after ≈ are worked out from the molar mass of the structure shown. “Also recorded” adds a separate entry of the source.

Legend:
[1] = Stability assay at a high temperature of 60° C. (water content, related substances, content); assay type: physicochemical; conditions: for Content %: HPLC; for Water content %: Karl Fischer method
Method: The crystalline form I: prepared by referring to the method of example 1 in CN201010178970.2. The batch number is 20100315-4;
The crystalline form II: prepared by example 2 of the Description. The batch number is 040805.
Test condition: sampled after being placed for 5 and 10 days at a high temperature of 60° C., and the results thus obtained were compared with those obtained at day 0 by measuring water content, related substances and contents thereof. The samples were sealed with plastic bags coated with aluminium foils during the assay.
Water content determination is performed according to the first method (the Karl Fischer method) in Chinese Pharmacopoeia, 2010 edition, Appendix VIII M.
Assay is performed by using the control as the external standard according to the high performance liquid chromatography in Chinese Pharmacopoeia, 2010 edition, Appendix VD.
Apparatus: high performance liquid chromatograph (Agilent 1200 series)
Chromatographic column: Agilent C18; filler: 5 μm octadecyl silane boned silica gel; inner diameter: 4.6 mm; length of the column: 150 mm.
Column temperature: 30° C.
Mobile phase: 0.02 M diammonium phosphate (pH=5.2 adjusted by phosphoric acid): acetonitrile=100:7
Determination of related substances is performed by area normalization method according to the high performance liquid chromatography in Chinese Pharmacopoeia, 2010 edition, Appendix VD.
Chromatographic column: Agilent C18; filler: 5 μm octadecyl silane boned silica gel; inner diameter: 4.6 mm; length of column: 150 mm.
Mobile phase: A: 0.02 M diammonium phosphate (pH=5.2 adjusted by phosphoric acid): acetonitrile=95:5.
B: 0.02 M diammonium phosphate (pH=5.2 adjusted by phosphoric acid): acetonitrile=30:70.
Gradient condition: see Table 1 below.

[2] = system: ESBLs negative Escherichia coli; assay: Antibacterial activity assay, standard agar double dilution method, clinically isolated strains; assay type: cell-based; conditions: ESBLs negative Escherichia coli clinical isolates
Excerpt: (§1) Test strains: the following clinically isolated strains were provided by public organizations.
(§2) Gram-positive bacteria: methicillin sensitive Staphylococcus aureus (MSSA), and penicillin sensitive Streptococcus pneumoniae;
(§3) Gram-negative bacteria: ESBLs negative Escherichia coli, ESBLs positive Escherichia coli, Haemophilus influenzae, and Moraxelle catarrhalis.
(§4) Test compound: the crystalline form II of compound A
(§5) Experimental method: standard agar double dilution method was adopted.

[3] = system: ESBLs positive Escherichia coli; assay: as above; assay type: cell-based; conditions: ESBLs positive Escherichia coli clinical isolates
Excerpt: as §1, §2, §3, §4, §5

Haemophilus influenzae = assay: as above; assay type: cell-based; conditions: Haemophilus influenzae clinical isolates
Excerpt: as §1, §2, §3, §4, §5

Moraxelle catarrhalis = assay: as above; assay type: cell-based; conditions: Moraxelle catarrhalis clinical isolates
Excerpt: as §1, §2, §3, §4, §5

[4] = system: methicillin sensitive Staphylococcus aureus (MSSA); assay: as above; assay type: cell-based; conditions: MSSA clinical isolates
Excerpt: as §1, §2, §3, §4, §5

[5] = system: penicillin sensitive Streptococcus pneumoniae; assay: as above; assay type: cell-based; conditions: Penicillin sensitive Streptococcus pneumoniae clinical isolates
Excerpt: as §1, §2, §3, §4, §5

[6] = system: Gram-positive and Gram-negative bacteria; assay: Antibacterial activity assay, overall conclusion; assay type: cell-based; conditions: clinically isolated strains
Excerpt: as §1, §2, §3, §4, §5

[7] = 5 days at 60° C. as compared with day 0
[8] = 10 days at 60° C. as compared with day 0

SMILES	Decrease in content % [1, 7]	Decrease in water content % [1, 7]	Increase open ring % [1, 7]	Increase total % [1, 7]	Related substance % Total % ([1]; 5 days at 60° C., sealed)	Related substance % open ring % ([1]; 5 days at 60° C., sealed)	Content % ([1]; 5 days at 60° C.)	Water content % ([1]; 5 days at 60° C.)	Decrease in content % [1, 8]	Decrease in water content % [1, 8]	Increase open ring % [1, 8]	Increase total % [1, 8]	Related substance % Total % ([1]; 10 days at 60° C., sealed)	Related substance % open ring % ([1]; 10 days at 60° C., sealed)	Content % ([1]; 10 days at 60° C.)	Water content % ([1]; 10 days at 60° C.)	Related substance % Total % ([1]; day 0)	Related substance % open ring % ([1]; day 0)	Content % ([1]; day 0)	Water content % ([1]; day 0)	further results
C[C@@H](O)[C@H]1C(=O)N2C(C(=O)O)=C(S[C@@H]3CN[C@H](C(=O)NCc4ccc(S(N)(=O)=O)cc4)C3)[C@H](C)[C@H]12 [crystalline form I, (4R,5S,6S)-6-((R)-1-hydroxyethyl)-4-methyl-7-oxo-3-(((3S,5S)-5-((4-sulfamoylbenzyl)carbamoyl)pyrrolidin-3-yl)thio)-1-azabicyclo[3.2.0]hept-2-ene-2-carboxylic acid]	3.73%	0.183%	0.646%	0.841%	2.550%	0.782%	96.27%	7.701%	3.95%	0.665%	0.984%	1.167%	2.876%	1.120%	96.05%	7.219%	1.709%	0.136%	100%	7.884%	–
C[C@@H](O)[C@H]1C(=O)N2C(C(=O)O)=C(S[C@@H]3CN[C@H](C(=O)NCc4ccc(S(N)(=O)=O)cc4)C3)[C@H](C)[C@H]12 [crystalline form II, (4R,5S,6S)-6-((R)-1-hydroxyethyl)-4-methyl-7-oxo-3-(((3S,5S)-5-((4-sulfamoylbenzyl)carbamoyl)pyrrolidin-3-yl)thio)-1-azabicyclo[3.2.0]hept-2-ene-2-carboxylic acid]	1.57%	0.026%	0.632%	0.527%	1.573%	0.789%	98.43%	8.290%	2.24%	0.402%	0.944%	0.853%	1.899%	1.101%	97.76%	7.914%	1.046%	0.157%	100%	8.316%	stability as compared with the crystalline form I ([1]; 5 and 10 days at 60° C.): superior stability; also recorded: better than that of the crystalline form I; MIC90 [2]: 0.016 µg/mL (≈ 0.0305 µM); MICmode [2]: 0.016 mg/L; MIC90 [3]: 0.25 µg/mL (≈ 0.477 µM); MICmode [3]: 0.016 mg/L; MIC90 (Haemophilus influenzae): 0.125 µg/mL (≈ 0.238 µM); MICmode (Haemophilus influenzae): 0.062 mg/L; MIC90 (Moraxelle catarrhalis): 0.008 µg/mL (≈ 0.0152 µM); MICmode (Moraxelle catarrhalis): 0.004 mg/L; MICmode [4]: 0.062 mg/L; MIC90 ([4]; Staphylococcus aureus): 0.062 µg/mL (≈ 0.118 µM); MIC90 [5]: 0.031 µg/mL (≈ 0.0591 µM); MICmode [5]: 0.008 mg/L; antibacterial activity [6]: excellent antibacterial activity against both Gram-positive and Gram-negative bacteria
